From patent publication US10808007B2, “Desacetoxytubulysin H and analogs thereof” (WILLIAM MARSH RICE UNIVERSITY, priority 2015, dated 2020) come the findings set out here.

Like-named read-outs stand apart in the source and are kept apart here. Bounds are passed on as bounds.

Common to all, as to assay type: cell-based
In one test the test system is CNS cancer cell lines. Kind of test: NCI-60 cytotoxicity, CNS cancer. Conditions: Homo sapiens. As for the experimental part: (§1) A number of the synthesized compounds (i.e. Tb1-Tb23) were evaluated for their activity against a variety of cancer cell lines, namely the NCI-60 human cancer cell line panel representing leukemia, melanoma, lung, colon, brain, ovary, breast, prostate and kidney types of cancer through the In Vitro Cell Line Screening Project (IVCLSP) of the National Cancer Institute (NCI), and a summary of the results is shown in Table 1. […] As there was interest in the activity in certain other cell lines, these and the remaining compounds (Tb1-Tb41, PTb-D42 and PTb-D43) were subjected to further testing against MES SA (uterine sarcoma cells), MES SA DX (multidrug resistant uterine sarcoma cells), and HEK 293T (human embryonic kidney cells). […] Tubulysins are known to be substrates for Pgp pumps (Xiangming, et al., 2013; Kaur, et al., 2006; Szakacs, et al., 2006) as supported by the observed low activities of all tubulysins tested except Tb28, Tb32 and Tb33.

Test [1] deals with MES SA DX (multidrug resistant uterine sarcoma cells). As to the kind of experiment: Cytotoxic assay (CellTiter-Glo, 72 h), MES SA DX. Conditions: Homo sapiens.
For test [2], the system named is HEK 293T (human embryonic kidney cells). Kind of test: Cytotoxic assay (CellTiter-Glo, 72 h), HEK 293T. Conditions: Homo sapiens, HEK-293T, read-out: IC50 HEK 293T.
Test [3] concerns ovarian cancer cell lines. As to the kind of experiment: NCI-60 cytotoxicity, ovarian cancer. Conditions: Homo sapiens. As for the experimental part:
as §1

The next test deals with colon cancer cell lines. Kind of test: NCI-60 cytotoxicity, colon cancer. Particulars: Homo sapiens. As for the experimental part: as §1
Test [4] relates to prostate cancer cell lines. Kind of test: NCI-60 cytotoxicity, prostate cancer. Particulars: Homo sapiens. As for the experimental part:
as §1

The next test concerns breast cancer cell lines. Kind of test: NCI-60 cytotoxicity, breast cancer. Particulars: Homo sapiens. The protocol: as §1
The test system of test [5] is MES SA (uterine sarcoma cells). Kind of test: Cytotoxic assay (CellTiter-Glo, 72 h), MES SA. Conditions: Homo sapiens, MES-SA, read-out: IC50 MES SA. A general note: ATP-based viability assays read luminescence as a measure of living cells.
For a further test, the system named is melanoma cell lines. Kind of test: NCI-60 cytotoxicity, melanoma. Particulars: Homo sapiens. As for the experimental part: as §1
Test [6] relates to leukemia cancer cell lines. Kind of test: NCI-60 cytotoxicity, leukemia. Particulars: Homo sapiens. The protocol: as §1
A further test concerns renal cancer cell lines. Kind of test: NCI-60 cytotoxicity, renal cancer. Conditions: Homo sapiens. As for the experimental part: as §1
For test [7], the system named is non-small cell lung cancer cell lines. Kind of test: NCI-60 cytotoxicity, non-small cell lung cancer. Conditions: Homo sapiens. The protocol: as §1

Take `CNC12C3C4C1C1C2C3C41C(=O)N[C@H](C(=O)N(C)[C@H](C[C@@H](OC(C)=O)c1nc(C(=O)N[C@@H](Cc2ccccc2)C[C@H](C)C(=O)OC)cs1)C(C)C)C1CC1` (stereo partly drawn) [Tb23, Methyl (2S,4R)-4-(2-((1R,3R)-1-acetoxy-3-((S)-2-cyclopropyl-N-methyl-2-(4-(methylamino)cubane-1-carboxamido)acetamido)-4-methylpentyl)thiazole-4-carboxamido)-2-methyl-5-phenylpentanoate]: the GI50 (usually the concentration giving 50% growth inhibition) with CNS cancer cell lines (NCI-60, selected value) came out at 119 nM; in test [3] (NCI-60, selected value) it was 54.9 nM; in the test with colon cancer cell lines (NCI-60, selected value), 204 nM; in test [4] (NCI-60, selected value), 308 nM; in the test with breast cancer cell lines (NCI-60, selected value), 44.7 nM; in the test on melanoma cell lines (NCI-60, selected value) it was 45.1 nM. Moreover, the GI50 in [6] (NCI-60, selected value) stood at 16.3 nM; in the test with renal cancer cell lines (NCI-60, selected value), 181 nM; in test [7] (NCI-60, selected value), 84.5 nM. Further, the IC50 in test [1], in [2] (72 h) and in test [5] (72 h) was over 50 nM each time.

Turning to `CC[C@H](C)[C@H](NC(=O)[C@H]1CCCCN1C)C(=O)N(C)[C@H](C[C@@H](OC(C)=O)c1nc(C(=O)N[C@@H](Cc2ccccc2)C[C@H](C)C(=O)O)cs1)C(C)C` [Tb1, N^14-desacetoxytubulysin H], the GI50 in the test with CNS cancer cell lines (NCI-60, selected value) is 0.305 nM; in test [3] (NCI-60, selected value) it was 0.234 nM; in the test with colon cancer cell lines (NCI-60, selected value), 0.269 nM; in test [4] (NCI-60, selected value), 0.339 nM; in the test on breast cancer cell lines (NCI-60, selected value), 0.147 nM; with melanoma cell lines (NCI-60, selected value), 0.074 nM. In addition, the GI50 in test [6] (NCI-60, selected value) is 0.264 nM; with renal cancer cell lines (NCI-60, selected value), 0.548 nM; in test [7] (NCI-60, selected value), 0.347 nM. In addition, the IC50 (in general, the midpoint of a concentration-inhibition curve) was over 10 nM in test [1]; 0.02 nM in test [2] (72 h); 0.02 nM in test [2]; 0.34 nM in test [5] (72 h); 0.34 nM in test [5].

`CC[C@H](C)[C@H](NC(=O)[C@H]1CCCCN1C)C(=O)N(C)[C@H](C[C@@H](OC(C)=O)c1nc(C(=O)N[C@@H](Cc2ccccc2)C[C@H](C)C(=O)OC)cs1)C(C)C` [Tb2, Methyl (2S,4R)-4-(2-((1R,3R)-1-acetoxy-3-((2S,3S)—N,3-dimethyl-2-((R)-1-methylpiperidine-2-carbo-xamido)pentanamido)-4-methylpentyl)thiazole-4-carboxamido)-2-methyl-5-phenylpentanoate]: the GI50 stood at 0.219 nM with CNS cancer cell lines (NCI-60, selected value); 0.042 nM in test [3] (NCI-60, selected value); 0.158 nM in the test on colon cancer cell lines (NCI-60, selected value); 0.162 nM in test [4] (NCI-60, selected value); 0.043 nM in the test on breast cancer cell lines (NCI-60, selected value); 0.03 nM in the test with melanoma cell lines (NCI-60, selected value). Further, the GI50 in test [6] (NCI-60, selected value) was determined as 0.078 nM; in the test with renal cancer cell lines (NCI-60, selected value) it was 0.218 nM; in [7] (NCI-60, selected value), 0.28 nM. In addition, the IC50 was over 10 nM in test [1]; 0.03 nM in test [2] (72 h); 0.03 nM in [2]; 0.2 nM in [5] (72 h); 0.2 nM in [5].

Regarding `CC[C@@H](C)[C@H](NC(=O)CN(C)C)C(=O)N(C)[C@H](C[C@@H](OC(C)=O)c1nc(C(=O)NC23CC(C(=O)OC)(C2)C3)cs1)C(C)C` [Tb16], the GI50 in the test on CNS cancer cell lines (NCI-60, selected value) was 127 nM; in [3] (NCI-60, selected value), 99.1 nM; with colon cancer cell lines (NCI-60, selected value) it was 98.1 nM; in test [4] (NCI-60, selected value), 303 nM; in the test on breast cancer cell lines (NCI-60, selected value), 123 nM; in the test with melanoma cell lines (NCI-60, selected value) it was 46.1 nM. Further, the GI50 in test [6] (NCI-60, selected value) was 15.1 nM; with renal cancer cell lines (NCI-60, selected value) it was 186 nM; in [7] (NCI-60, selected value) it was 85 nM. Also, the half-maximal inhibitory concentration (IC50) in test [1], in test [2] (72 h) and in test [5] (72 h) was over 50 nM each time.

For the compound `CCC(C)[C@H](NC(=O)[C@H]1CCCCN1C)C(=O)N(C)[C@H](C[C@@H](OC(C)=O)c1nc(C(=O)NC23CC(C(=O)OC)(C2)C3)cs1)C(C)C` (stereo in doubt) [Tb14, Methyl 3-(2-((1R,3R)-1-acetoxy-3-((2S,3S)—N,3-dimethyl-2-((R)-1-methylpiperidine-2-carboxamido)-pentanamido)-4-methylpentyl)thiazole-4-carboxamido)bicyclo[1.1.1]pentane-1-carboxylate], the GI50 came to 0.382 nM in the test with CNS cancer cell lines (NCI-60); 0.382 nM in the test on CNS cancer cell lines (NCI-60, selected value); 0.256 nM in [3] (NCI-60); 0.433 nM with colon cancer cell lines (NCI-60); 0.433 nM in the test with colon cancer cell lines (NCI-60, selected value); 0.449 nM in test [4] (NCI-60). The GI50 came out at 0.449 nM in test [4] (NCI-60, selected value); 0.267 nM in the test with breast cancer cell lines (NCI-60); 0.137 nM in the test on melanoma cell lines (NCI-60); 0.137 nM in the test with melanoma cell lines (NCI-60, selected value); 0.064 nM in test [6] (NCI-60); 0.364 nM in the test on renal cancer cell lines (NCI-60). The same compound returned a GI50 in test [7] (NCI-60) of 0.156 nM. Further, the IC50 in test [1] was over 50 nM; in test [2] (72 h), 0.11 nM; in test [2], 0.11 nM; in [5] (72 h), 0.35 nM; in test [5] it was 0.35 nM.

For `CC[C@H](C)[C@H](NC(=O)N[C@@H](C)c1ccccc1)C(=O)N(C)[C@H](C[C@@H](OC(C)=O)c1nc(C(=O)N[C@@H](Cc2ccccc2)C[C@H](C)C(=O)OC)cs1)C(C)C` [Tb4, (2S,4R)-Methyl 4-(2-((2S,6S,9R,1 IR)-6-((S)-sec-butyl)-9-isopropyl-8-methyl-4,7,13-trioxo-2-phenyl-12-oxa-3,5,8-tri-azatetradecan-11-yl)thiazole-4-carboxamido)-2-methyl-5-phenylpentanoate], the GI50 in the test on CNS cancer cell lines (NCI-60, selected value) was over 1000 nM; in test [3] (NCI-60, selected value), over 1000 nM; in the test with colon cancer cell lines (NCI-60, selected value) it was over 1000 nM; in [4] (NCI-60, selected value) it was over 1000 nM; in the test with breast cancer cell lines (NCI-60, selected value), over 1000 nM; in the test on melanoma cell lines (NCI-60, selected value), over 1000 nM. Moreover, the GI50 in test [6] (NCI-60, selected value) is over 1000 nM; in the test on renal cancer cell lines (NCI-60, selected value), over 1000 nM; in test [7] (NCI-60, selected value) it was over 1000 nM. Further, the IC50 in test [1], in [2] (72 h) and in test [5] (72 h) was over 50 nM throughout.

For the compound `CC[C@H](C)[C@H](NC(=O)C12C3C4C1C1C2C3C41NC(C)=O)C(=O)N(C)[C@H](C[C@@H](OC(C)=O)c1nc(C(=O)N[C@@H](Cc2ccccc2)C[C@H](C)C(=O)OC)cs1)C(C)C` (stereo partly drawn) [Tb9, Methyl(2S,4R)-4-(2-((R,3R)-3-((2S,3S)-2-(4-acetamidocubane-1-carboxamido)-N,3-dimethylpentan amido)-1-acetoxy-4-methylpentyl)thiazole-4-carboxamido)-2-methyl-5-phenylpentanoate], the GI50 amounted to 246 nM in the test on CNS cancer cell lines (NCI-60, selected value); 61 nM in test [3] (NCI-60, selected value); 331 nM with colon cancer cell lines (NCI-60, selected value); 459 nM in test [4] (NCI-60, selected value); 53.2 nM in the test with breast cancer cell lines (NCI-60, selected value); 46.6 nM with melanoma cell lines (NCI-60, selected value). The GI50 in test [6] (NCI-60, selected value) came to 24.2 nM; with renal cancer cell lines (NCI-60, selected value) it was 238 nM; in test [7] (NCI-60, selected value) it was 83.6 nM. Besides, the IC50 in test [1], in test [2] (72 h) and in [5] (72 h) was over 50 nM each time.

Regarding `CC[C@H](C)[C@H](NC(=O)c1ccccn1)C(=O)N(C)[C@H](C[C@@H](OC(C)=O)c1nc(C(=O)N[C@@H](Cc2ccccc2)C[C@H](C)C(=O)OC)cs1)C(C)C` [Tb3, (2S,4R)-Methyl 4-(2-((1R,3R)-1-acetoxy-3-((2S,3S)—N,3-dimethyl-2-(picolinamido)pentanamido)-4-methylpentyl)thi-azole-4-carboxamido)-2-methyl-5-phenylpentanoate], the GI50 with CNS cancer cell lines (NCI-60, selected value) was over 1000 nM; in [3] (NCI-60, selected value), over 1000 nM; in the test on colon cancer cell lines (NCI-60, selected value), over 1000 nM; in test [4] (NCI-60, selected value), over 1000 nM; in the test on breast cancer cell lines (NCI-60, selected value) it was over 1000 nM; in the test with melanoma cell lines (NCI-60, selected value) it was over 1000 nM. For the same compound, the GI50 in test [6] (NCI-60, selected value) was over 1000 nM; with renal cancer cell lines (NCI-60, selected value), over 1000 nM; in [7] (NCI-60, selected value), over 1000 nM. The IC50 in [1], in [2] (72 h) and in test [5] (72 h) was over 50 nM each time.

On to `CC[C@H](C)[C@H](NC(=O)c1cnccn1)C(=O)N(C)[C@H](C[C@@H](OC(C)=O)c1nc(C(=O)N[C@@H](Cc2ccccc2)C[C@H](C)C(=O)OC)cs1)C(C)C` [Tb35, (2S,4R)-methyl 4-(2-((1R,3R)-1-acetoxy-3-((2S,3S)—N,3-dimethyl-2-(pyrazine-2-carboxamido)pentanamido)-4-methylpentyl)thiazole-4-carboxamido)-2-methyl-5-phenylpentanoate], for which the IC50 in [1] is over 1000 nM; in test [2] (72 h) it was over 500 nM; in test [5] (72 h), over 1000 nM.
